Experiment [1] concerns HL60 cells. The experiment in a line: Rat HL60/estradiol tumor model with magnetic field exposure, cancer cell count in blood. It is filed as in vivo. Here is the method: (§1) Efficacy studies of BMND were conducted in a rat model. Rats were injected with HL60 cells and estradiol to induce the generation of tumors on various organs. This is a well-established rat model of human tumors. The positive control comprised six healthy rats with no tumor induction and no drug treatment. The negative control comprised six tumor bearing rats with no drug treatment. The test groups included six rats in each group, all induced for tumors, and treated with either paclitaxel (gold standard chemotherapeutic; 40 mg/KG body weight), anti-HL60-BMND at 100 μg/kG body weight, or anti-HL60-BMND at 200 μg/KG body weight.
(§2) Procedure: Rats were inoculated with estradiol-17ß (1.7 mg/pellet) before an injection of 1×10^7 HL60 cells intravenously into tail vein. If tumor observed at various organs, the tumor size could be measured in three dimensions with calipers every 2 days starting at day 7. If tumor was not observed/not palpable, then tumor induction was confirmed by histopathology. […] After confirmation of tumor induction by histopathology, treatment was started.
The rats were exposed to magnetic field according to the following protocol. Rats strapped to the VFVF magnetizer as described above. The device was switched on to apply magnetic force of known intensity, frequency and duration to cause “flip/flop” action in the biocompatible magnetic nanodiscs. This application of oscillating field force is expected to cause the Nanomagnetic particles bound to the cell to “flip/flop.” This action is expected to damage the cell wall leading to apoptosis. The following parameters were recorded: Treatment Time—60 minutes; Magnetic field intensity—90 G (Gauss); Frequency—20 Hz. Waveform—sinusoidal
Cancer cell count in blood was ascertained for the treatment groups.

For experiment [2], the system named is HL60 cells. The experiment in a line: Rat HL60/estradiol tumor model with magnetic field exposure, tumor histopathology (H&E). It is filed as in vivo. Particulars: paclitaxel treated group, 40 mg/kg body weight; H&E 400×. As to the method:
as §1, §2
The rats were exposed to magnetic field according to the following protocol. […] The following parameters were recorded: Treatment Time—60 minutes; Magnetic field intensity—90 G (Gauss); Frequency—20 Hz. […]
Confirmation of tumor was assessed as follows: Formalin fixed tissue of tumor area samples from various organs were received. […]

[3] abbreviates: Paclitaxel 40 mg/kg body weight.
Setting [4] is: STD group (Paclitaxel 40 mg/kg), baseline.

In the case of `CC(=O)O[C@H]1C(=O)[C@@]2(C)[C@H]([C@H](OC(=O)c3ccccc3)[C@]3(O)C[C@H](OC(=O)[C@H](O)[C@@H](NC(=O)c4ccccc4)c4ccccc4)C(C)=C1C3(C)C)[C@]1(OC(C)=O)CO[C@@H]1C[C@@H]2O` [Paclitaxel], in experiment [1] (setting [3]), the “Apoptotic cancer cells present per ml in the blood, After treatment 144 hrs” value is 5.20 × 10^3 per ml in the blood and the “Viable cancer cells present per ml of blood, After treatment 144 hrs” value was 5.47 × 10^3 per ml of blood. Moreover, in experiment [1] (setting [4]), the “Apoptotic cancer cells present per ml in the blood, Before treatment” value was found to be 852 per ml in the blood and the “Viable cancer cells present per ml of blood, Before treatment” value was 16.08 × 10^3 per ml of blood. Besides, in experiment [2], the “tumor histopathology (FIG. 8C)” value is “neoplastic cells (small arrow) with stromal reaction, mitotic figures (arrow head), inflammation and necrosis (large arrow)”.

The values are drawn from patent US12544442B2, “Biocompatible nanomagnetic discs and methods of use thereof” (priority 2018, dated 2026).
